Reference: patent US20120214862A1, “MODULATION OF FACTOR 7 EXPRESSION” (ISIS Pharmaceuticals, Inc., priority 2009, published 2012)
Like-named read-outs stand apart in the source and are kept apart here. In the oligonucleotide strings, read from the 5' end, every base follows the letter of its sugar. An asterisk marks phosphorothioate; unmarked linkages are phosphodiester. Other units and linkages are bracketed, terminal groups are in braces. A string of capitals states the bases alone. e = 2'-O-(2-methoxyethyl) (MOE); [5mC] = 5-methylcytosine; d = 2'-deoxy (DNA)

Assays:
[1] = test system: BALB/c mice; conditions: mouse, in vivo; for Blood: BALB/c, 30 min
[2] = test system: platelet factor-4 (PF-4); assay: FeCl3 induced venous thrombosis (VT) model, real-time RT-PCR quantification of PF-4 in vena cava as measure of thrombus formation; type: in vivo, mouse; conditions: for PF-4 (percent of PF-4 mRNA as compared to the PBS + FeCl3 control): BALB/c mice, no ISIS 403102
Description: Two control groups of BALB/c mice were treated with PBS, administered subcutaneously twice a week for 3 weeks. Thrombus formation was induced with FeCl3 in half of the mice while the rest of the mice were assayed for tail bleeding. […] Thrombus formation was induced with FeCl3 in all groups of the VT mice except the first control group.
In mice undergoing FeCl3 treatment, thrombus formation was induced by applying a piece of filter paper ([…]) pre-saturated with 10% FeCl3 solution directly on the vena cava. After 3 minutes of exposure, the filter paper was removed. Thirty minutes after the filter paper application, a fixed length of the vein containing the thrombus was dissected out for platelet analysis. Liver was collected for RNA analysis.
(§1) Real-time RT-PCR quantification of platelet factor-4 (PF-4) was used to quantify platelets in the vena cava as a measure of thrombus formation.
Six additional groups of BALB/c mice was treated with 0.5 mg/kg, 1 mg/kg, 2 mg·kg, 3 mg/kg, 4 mg/kg, or 5 mg/kg of warfarin, administered intraperioneally daily for 6 days. Four hours after the last dose of warfarin, mice were sacrificed. A control group of BALB/c mice were treated with PBS, administered subcutaneously twice a week for 3 weeks. Two days after the last dose of PBS, mice were anesthetized with 150 mg/kg ketamine mixed with 10 mg/kg xylazine administered by intraperitoneal injection. Thrombus formation was induced with FeCl3 in groups of mice except the first control group.
In mice undergoing FeCl3 treatment, thrombus formation was induced by applying a piece of filter paper (2×4 mm) pre-saturated with 10% FeCl3 solution directly on the vena cava. After 3 minutes of exposure, the filter paper was removed. Thirty minutes after the filter paper application, a fixed length of the vein containing the thrombus was dissected out for platelet analysis. Liver was collected for RNA analysis.
as §1
Thrombus formation was induced with FeCl3 in all of the mice except the first […] control groups. All mice were anesthetized with 150 mg/kg of ketamine mixed with 10 mg/kg of xylazine administered by intraperitoneal injection.
After 3 minutes of exposure, the filter paper was removed. Thirty minutes after the filter paper application, a fixed length of the vein containing the thrombus was dissected out for platelet analysis.
Real-time PCR quantification of PF-4 was used to quantify platelets in the vena cava as a measure of thrombus formation. […] Data is presented as percent of PF-4 mRNA as compared to the PBS+ FeCl3 control, […]

[3] = test system: human Factor 7 mRNA; assay: Dose-dependent antisense inhibition of human Factor 7 in HepB3 cells, transfection with electroporation; type: cell-based
Summary of the method: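 HepB3 cells, 20,000/well, electroporated with gapmers at 3.125–100 μM; about 16 h treatment. Factor 7 mRNA by qRT-PCR with primer probe set RTS 2927, normalized to RIBOGREEN total RNA; percent inhibition versus untreated cells.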

[4] = test system: human Factor 7 mRNA; assay: Dose-dependent antisense inhibition of human Factor 7 in HepB3 cells, transfection with lipofectin; type: cell-based; conditions: lipofectin, HepB3 cells, 16 hours
Summary of the method: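 HepB3 cells (4,000/well) lipofectin-transfected with antisense oligonucleotide at 3.125 or 6.25 up to 100 nM for ~16 h. Factor 7 mRNA measured by real-time RT-PCR with primer probe set RTS 2927, adjusted to RIBOGREEN total RNA; expressed as percent inhibition versus untreated control cells.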

[5] = test system: human Factor 7 mRNA; assay: Antisense inhibition of human Factor 7 mRNA in HepB3 cells, lipofectin, 50 nM, real-time RT-PCR; type: cell-based; conditions: HepB3 cells; gapmers targeted to nucleobases 13760 to 13789 of SEQ ID NO: 1 (Table 10)
Summary of the method: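 Readout is percent reduction of Factor 7 message compared with untreated cells, after correction for total RNA content quantified by RIBOGREEN®. Cultures were seeded at 4,000 cells per well and treated for about 24 hours before RNA extraction.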

[6] = 3.125 μM, 16 hours (Example 7, Table 15)
[7] = 6.25 μM, 16 hours (Example 7, Table 15)
[8] = 12.5 μM, 16 hours (Example 7, Table 15)
[9] = 25 μM, 16 hours (Example 7, Table 15)
[10] = 50 μM, 16 hours (Example 7, Table 15)
[11] = 100 μM, 16 hours (Example 7, Table 15)

Molecule | percent inhibition of Factor 7 mRNA, relative to untreated control cells [3, 6] | percent inhibition of Factor 7 mRNA, relative to untreated control cells [3, 7] | percent inhibition of Factor 7 mRNA, relative to untreated control cells [3, 8] | percent inhibition of Factor 7 mRNA, relative to untreated control cells [3, 9] | percent inhibition of Factor 7 mRNA, relative to untreated control cells [3, 10] | percent inhibition of Factor 7 mRNA, relative to untreated control cells [3, 11] | percent inhibition of Factor 7 mRNA, relative to untreated control cells ([4]; 3.125 nM) | percent inhibition of Factor 7 mRNA, relative to untreated control cells ([4]; 12.5 nM) | percent inhibition of Factor 7 mRNA, relative to untreated control cells ([4]; 25 nM) | percent inhibition of Factor 7 mRNA, relative to untreated control cells ([4]; 50 nM) | percent inhibition of Factor 7 mRNA, relative to untreated control cells ([4]; 100 nM) | percent inhibition of Factor 7 mRNA, relative to untreated control cells [4] | % Inhibition of human Factor 7 mRNA levels [5] | other results
COc1ccc(-n2nc(C(N)=O)c3c2C(=O)N(c2ccc(N4CCCCC4=O)cc2)CC3)cc1 [Apixaban, reference compound] | – | – | – | – | – | – | – | – | – | – | – | – | – | Blood ([1]; ip, 5 mg/kg): 0.22 g; Blood ([1]; ip, 10 mg/kg): 0.58 g; Blood ([1]; sc, 10 mg/kg): 0.04 g; bleeding compared to PBS treated mice ([1]; ip, 5 mg/kg): same amount of bleeding as PBS treated mice; bleeding compared to PBS treated mice ([1]; ip, 10 mg/kg): increased bleeding; bleeding compared to PBS treated mice ([1]; sc, 10 mg/kg): less bleeding than PBS mice
COC(=O)[C@H](c1ccccc1Cl)N1CCc2sccc2C1 [Plavix, clopidogrel, reference compound] | – | – | – | – | – | – | – | – | – | – | – | – | – | PF-4 (percent of PF-4 mRNA as compared to the PBS + FeCl3 control) ([2]; FeCl3, Plavix 6.25 mg/kg): 61%; PF-4 (percent of PF-4 mRNA as compared to the PBS + FeCl3 control) ([2]; FeCl3, Plavix 12.50 mg/kg): 24%; PF-4 (percent of PF-4 mRNA as compared to the PBS + FeCl3 control) ([2]; FeCl3, Plavix 25.00 mg/kg): 13%; PF-4 (percent of PF-4 mRNA as compared to the PBS + FeCl3 control) ([2]; FeCl3, Plavix 50.00 mg/kg): 6%; PF-4 in comparison to the PBS control ([2]; Example 22, Plavix 6.25-50.00 mg/kg, three doses over two days): reduction of PF-4
422177 (antisense e[5mC]*e[5mC]*e[5mC]*dG*d[5mC]*d[5mC]*dG*dG*d[5mC]*dT*d[5mC]*dT*dG*d[5mC]*dT*d[5mC]*dA*eT*e[5mC]*e[5mC]) [compound 422177] | 3% | 10% | 29% | 21% | 31% | 63% | 12% | 44% | 64% | 81% | 88% | 24% | 74% | –
422183 (antisense eG*e[5mC]*eG*d[5mC]*d[5mC]*dA*d[5mC]*d[5mC]*d[5mC]*dG*d[5mC]*d[5mC]*dG*dG*d[5mC]*dT*d[5mC]*eT*eG*e[5mC]) [compound 422183] | 16% | 28% | 37% | 44% | 59% | 71% | 28% | 56% | 78% | 84% | 88% | 37% | 79% | percent inhibition of Factor 7 mRNA, relative to untreated control cells ([3]; 3.125 μM, 16 hours (Example 8, Table 16)): 2%; percent inhibition of Factor 7 mRNA, relative to untreated control cells ([3]; 6.25 μM, 16 hours (Example 8, Table 16)): 3%; percent inhibition of Factor 7 mRNA, relative to untreated control cells ([3]; 12.5 μM, 16 hours (Example 8, Table 16)): 24%; percent inhibition of Factor 7 mRNA, relative to untreated control cells ([3]; 25 μM, 16 hours (Example 8, Table 16)): 50%; percent inhibition of Factor 7 mRNA, relative to untreated control cells ([3]; 50 μM, 16 hours (Example 8, Table 16)): 64%; percent inhibition of Factor 7 mRNA, relative to untreated control cells ([3]; 100 μM, 16 hours (Example 8, Table 16)): 71%
